The record followed here is PubChem BioAssay AID192 (DTP/NCI, 2004).

Values joined by “and” are separate entries in the source; they are usually repeats but may differ in a detail not shown here. Identical values can stand only once. Inconclusive results and toxic doses are left out.

The experiment deals with BDF1 mice, B16 melanoma ip, median survival T/C. In words: NCI In Vivo Anticancer Drug Screen. Data for tumor model B16 Melanoma (intraperitoneal) in B6D2F1 (BDF1) mice. To be noted: endpoint: median survival time, higher = longer survival. Summed up:
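In this screen, activity was judged from survival or tumor size in treated versus vehicle-treated tumor-bearing mice, reported as T/C.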

The mark [1] stands for this setting: dose: 100.0 mg/kg/injection, schedule: Q01DX009 (ip), vehicle: saline with Tween-80.
Setting [2] is: dose: 200.0 mg/kg/injection, schedule: Q01DX009 (ip), vehicle: saline with Tween-80.
Where [3] appears, read: dose: 400.0 mg/kg/injection, schedule: Q01DX009 (ip), vehicle: saline with Tween-80.
The mark [4] stands for this setting: dose: 100.0 mg/kg/injection, schedule: Q01DX009 (ip), vehicle: Klucel (hydroxypropylcellulose) (HPC).
[5] abbreviates: dose: 200.0 mg/kg/injection, schedule: Q01DX009 (ip), vehicle: Klucel (hydroxypropylcellulose) (HPC).
The mark [6] stands for this setting: dose: 400.0 mg/kg/injection, schedule: Q01DX009 (ip), vehicle: Klucel (hydroxypropylcellulose) (HPC).

In the case of `O=C(O)CC(NC(=O)CP(=O)(O)O)C(=O)O` (configuration not stated), the T/C (dose: 10.0 mg/kg/injection, schedule: Q01DX005 (ip), vehicle: saline) is 112 % of control; the T/C (dose: 15.6 mg/kg/injection, schedule: Q03HX024 (ip), vehicle: saline) is 175 % of control; the T/C (dose: 20.0 mg/kg/injection, schedule: Q01DX005 (ip), vehicle: saline) was 123 % of control; the T/C (dose: 21.9 mg/kg/injection, schedule: Q01DX009 (ip), vehicle: saline) is 150 % of control; the T/C (dose: 25.9 mg/kg/injection, schedule: Q03HX024 (ip), vehicle: saline) is 176 % of control; the T/C (dose: 31.1 mg/kg/injection, schedule: Q01DX009 (ip), vehicle: saline) was 156 % of control. For the same compound, the T/C was 164 % of control (dose: 32.9 mg/kg/injection, schedule: Q01DX009 (ip), vehicle: saline); 182 % of control (dose: 43.2 mg/kg/injection, schedule: Q03HX024 (ip), vehicle: saline); 174 % of control (dose: 49.4 mg/kg/injection, schedule: Q01DX009 (ip), vehicle: saline); 177 % of control (dose: 51.8 mg/kg/injection, schedule: Q01DX009 (ip), vehicle: saline); 182 % of control (dose: 74.1 mg/kg/injection, schedule: Q01DX009 (ip), vehicle: saline); 153 % of control (dose: 77.8 mg/kg/injection, schedule: Q04DX003 (ip), vehicle: saline). Moreover, the T/C (dose: 79.0 mg/kg/injection, schedule: Q01DX009 (ip), vehicle: saline) was 170 % of control; the T/C (dose: 79.0 mg/kg/injection, schedule: Q01DX009 (sc), vehicle: saline) was 165 % of control; the T/C (dose: 86.4 mg/kg/injection, schedule: Q01DX004 (ip), vehicle: saline) is 173 % of control; the T/C (dose: 86.4 mg/kg/injection, schedule: Q01DX009 (ip), vehicle: saline) was 177 % of control; the T/C (dose: 111.0 mg/kg/injection, schedule: Q01DX009 (ip), vehicle: saline) was 201 % of control; the T/C (dose: 117.0 mg/kg/injection, schedule: Q04DX003 (oral), vehicle: saline) was 106 % of control. Also, the T/C runs as follows: (dose: 118.0 mg/kg/injection, schedule: Q01DX009 (ip), vehicle: saline) 185 % of control; (dose: 118.0 mg/kg/injection, schedule: Q01DX009 (oral), vehicle: saline) 100 % of control; (dose: 118.0 mg/kg/injection, schedule: Q01DX009 (sc), vehicle: saline) 176 % of control; (dose: 125.0 mg/kg/injection, schedule: Q04DX003 (ip), vehicle: saline) 162 % of control; (dose: 130.0 mg/kg/injection, schedule: Q04DX003 (ip), vehicle: saline) 168 % of control and 171 % of control; (dose: 144.0 mg/kg/injection, schedule: Q01DX004 (ip), vehicle: saline) 178 % of control. Further, the T/C reads like this: (dose: 144.0 mg/kg/injection, schedule: Q01DX009 (ip), vehicle: saline) 199 % of control; (dose: 160.0 mg/kg/injection, schedule: Q01DX005 (ip), vehicle: saline) 159 % of control; (dose: 167.0 mg/kg/injection, schedule: Q01DX009 (ip), vehicle: saline) 204 % of control; (dose: 177.0 mg/kg/injection, schedule: Q01DX009 (ip), vehicle: saline) 177 % of control; (dose: 177.0 mg/kg/injection, schedule: Q01DX009 (sc), vehicle: saline) 178 % of control; (dose: 194.0 mg/kg/injection, schedule: Q04DX003 (oral), vehicle: saline) 110 % of control. Moreover, the T/C is, setting by setting: (dose: 216.0 mg/kg/injection, schedule: Q04DX003 (ip), vehicle: saline) 161 % of control and 201 % of control; (dose: 240.0 mg/kg/injection, schedule: Q01DX004 (ip), vehicle: saline) 183 % of control; (dose: 250.0 mg/kg/injection, schedule: Q01DX009 (ip), vehicle: saline) 190 % of control; (dose: 250.0 mg/kg/injection, schedule: Q04DX003 (ip), vehicle: saline) 182 % of control; (dose: 320.0 mg/kg/injection, schedule: Q01DX005 (ip), vehicle: saline) 175 % of control; (dose: 324.0 mg/kg/injection, schedule: Q01DX001 (ip), vehicle: saline) 168 % of control. Moreover, the T/C runs as follows: (dose: 324.0 mg/kg/injection, schedule: Q04DX003 (oral), vehicle: saline) 95 % of control; (dose: 360.0 mg/kg/injection, schedule: Q04DX003 (ip), vehicle: saline) 171 % of control and 227 % of control; (dose: 400.0 mg/kg/injection, schedule: Q01DX001 (oral), vehicle: saline) 97 % of control; (dose: 400.0 mg/kg/injection, schedule: Q01DX004 (ip), vehicle: saline) 46 % of control; (dose: 500.0 mg/kg/injection, schedule: Q04DX003 (ip), vehicle: saline) 197 % of control; (dose: 540.0 mg/kg/injection, schedule: Q01DX001 (ip), vehicle: saline) 174 % of control. The T/C (dose: 540.0 mg/kg/injection, schedule: Q04DX003 (oral), vehicle: saline) is 110 % of control; the T/C (dose: 600.0 mg/kg/injection, schedule: Q04DX003 (ip), vehicle: saline) is 86 % of control and 201 % of control; the T/C (dose: 900.0 mg/kg/injection, schedule: Q01DX001 (ip), vehicle: saline) was 154 % of control and 190 % of control; the T/C (dose: 900.0 mg/kg/injection, schedule: Q01DX001 (oral), vehicle: saline) was 100 % of control; the T/C (dose: 900.0 mg/kg/injection, schedule: Q01DX001 (sc), vehicle: saline) is 154 % of control; the T/C (dose: 1350.0 mg/kg/injection, schedule: Q01DX001 (ip), vehicle: saline) is 150 % of control. The T/C (dose: 1350.0 mg/kg/injection, schedule: Q01DX001 (sc), vehicle: saline) is 120 % of control and the T/C (dose: 1500.0 mg/kg/injection, schedule: Q01DX001 (ip), vehicle: saline) is 119 % of control.

For `CC(SC(C)c1ccccc1)c1ccccc1` (configuration not stated), the T/C under setting [1] is 101 % of control, the T/C under setting [2] is 99 % of control and the T/C under setting [3] was 88 % of control.

For `O=C(O)C1CCCCC1C(=O)Nc1ccccc1C(F)(F)F` (configuration not stated), the T/C is 90 % of control under setting [1], 90 % of control under setting [2] and 90 % of control under setting [3].

As for `CC1=Nc2ccccc2/C1=C\c1c(C)[nH]c2ccccc12`, the T/C runs as follows: (dose: 25.0 mg/kg/injection, schedule: Q01DX009 (ip), vehicle: saline) 110 % of control; (dose: 50.0 mg/kg/injection, schedule: Q01DX009 (ip), vehicle: saline) 113 % of control; (dose: 100.0 mg/kg/injection, schedule: Q01DX009 (ip), vehicle: saline) 121 % of control; (dose: 200.0 mg/kg/injection, schedule: Q01DX009 (ip), vehicle: saline) 97 % of control.

With `Cc1ccc(N(CCCl)CCCl)cc1NC(=O)c1ccccc1`, the T/C (dose: 400.0 mg/kg/injection, schedule: Q01DX009 (ip), vehicle: saline) is 161 % of control and the T/C (dose: 800.0 mg/kg/injection, schedule: Q01DX009 (ip), vehicle: saline) was 188 % of control.

For `O=CCC(O)C(O)C(O)CO` (configuration not stated), the T/C is 104 % of control (dose: 300.0 mg/kg/injection, schedule: Q01DX009 (ip), vehicle: suspension in saline); 100 % of control (dose: 600.0 mg/kg/injection, schedule: Q01DX009 (ip), vehicle: suspension in saline); 100 % of control (dose: 1200.0 mg/kg/injection, schedule: Q01DX009 (ip), vehicle: suspension in saline); 101 % of control (dose: 1800.0 mg/kg/injection, schedule: Q01DX009 (ip), vehicle: suspension in saline).

Turning to `CCCC(C)C(C(=O)O)c1ccccc1` (configuration not stated), the T/C runs as follows: under setting [1], 110 % of control; under setting [2], 106 % of control; (dose: 300.0 mg/kg/injection, schedule: Q01DX009 (ip), vehicle: saline with Tween-80) 91 % of control.

Turning to `Oc1cc(Br)ccc1C=Nc1ccc(N2CCCCC2)cc1`, the T/C is, setting by setting: under setting [4], 106 % of control; under setting [5], 93 % of control; under setting [6], 93 % of control.

In the case of `Nc1ccccc1S(=O)(=O)Nc1ccccc1`, the T/C by setting is: under setting [4], 96 % of control; under setting [5], 107 % of control; under setting [6], 110 % of control.

For `Cc1ccc(NS(=O)(=O)c2ccccc2)cc1Cl`, the T/C is 90 % of control under setting [5] and 88 % of control under setting [6].
